According to the supplement of paper PMC10307832:

Tests used:
Assay in all cases: relative viability (nuclei count vs DMSO), 5 days (fraction); higher = more cells survive
[1] = compound: CN1CCN(CC1)C2=CC(=C(C=C2)NC3=NC(=C(S3)C(=O)C4=C(C=CC=C4Cl)Cl)N)OC [XMD14-99] + Cc1cc(Nc2cc(N3CCN(C)CC3)nc(Sc3ccc(NC(=O)C4CC4)cc3)n2)n[nH]1 [Tozasertib] (partner 0.1 µM)
Summary of the method: (§1)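 Cells from lung cancer lines were seeded into 1536-well plates and, one day later, dosed by pin tool. Treatments were either a single drug or a fixed dose of an anchor drug with five library-drug doses (not always all listed) in √10 steps. After 5 days, nuclei were stained in a one-step fixation (final 0.05% Triton X-100, 1% formaldehyde, 1 ug/ml Hoechst) and counted on 4× images, and relative viability is the treated-to-vehicle nuclei ratio, as the median of duplicate plates.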

[2] = compound: N[C@@H]1CCCN(c2c(/C=C3\SC(=O)NC3=O)cccc2-c2ccccc2)C1 [AZD1208] + N=C(N)NC(=N)NCCc1ccccc1 [Phenformin] (partner 250 µM)
Summary of the method: as §1

[3] = compound: CN1CCN(CC1)C2=CC(=C(C=C2)NC3=NC(=C(S3)C(=O)C4=C(C=CC=C4Cl)Cl)N)OC [XMD14-99] + NC(=O)Nc1cc(-c2cccc(F)c2)sc1C(=O)N[C@H]1CCCNC1 [AZD7762] (partner 0.2 µM)
Summary of the method: as §1

[4] = compound: CN1CCN(CC1)C2=CC(=C(C=C2)NC3=NC(=C(S3)C(=O)C4=C(C=CC=C4Cl)Cl)N)OC [XMD14-99] + Nc1nc2[nH]cc(CCc3ccc(C(=O)N[C@@H](CCC(=O)O)C(=O)O)cc3)c2c(=O)[nH]1 [Pemetrexed] (partner 0.2 µM)
Summary of the method: as §1

| Cell Line | relative viability ([1]; first compound 0.08 µM) | relative viability ([1]; first compound 0.8 µM) | relative viability ([1]; first compound 2.53 µM) | relative viability ([1]; first compound 8 µM) | relative viability ([2]; first compound 0.08 µM) | relative viability ([2]; first compound 0.253 µM) | relative viability ([2]; first compound 0.8 µM) | relative viability ([2]; first compound 2.53 µM) | relative viability ([2]; first compound 8 µM) | relative viability ([3]; first compound 0.08 µM) | relative viability ([3]; first compound 0.8 µM) | relative viability ([3]; first compound 2.53 µM) | relative viability ([3]; first compound 8 µM) | relative viability ([4]; first compound 0.08 µM) | relative viability ([4]; first compound 0.8 µM) | relative viability ([4]; first compound 2.53 µM) | relative viability ([4]; first compound 8 µM) |
| --- | --- | --- | --- | --- | --- | --- | --- | --- | --- | --- | --- | --- | --- | --- | --- | --- | --- |
| 201T | 0.899 | 0.915 | 0.886 | 0.669 | 0.434 | 0.444 | 0.429 | 0.427 | 0.351 | 0.529 | 0.598 | 0.583 | 0.607 | 0.331 | 0.356 | 0.32 | 0.281 |
| A549 | – | – | – | – | 0.157 | 0.172 | 0.168 | 0.132 | 0.127 | – | – | – | – | – | – | – | – |
| A-427 | 0.224 | 0.227 | 0.201 | 0.188 | 0.318 | 0.367 | 0.257 | 0.323 | 0.262 | 0.692 | 0.621 | 0.496 | 0.454 | 0.952 | 0.946 | 0.892 | 0.645 |
| ABC-1 | 0.185 | 0.177 | 0.235 | 0.217 | 0.232 | 0.238 | 0.212 | 0.229 | 0.2 | 0.859 | 1.03 | 0.865 | 0.762 | – | – | – | – |
| BEN | 0.478 | 0.471 | 0.5 | 0.428 | 0.269 | 0.267 | 0.244 | 0.259 | 0.269 | 0.594 | 0.736 | 0.596 | 0.514 | 0.747 | 0.794 | 0.845 | 0.492 |
| CAL-12T | 0.331 | 0.331 | 0.307 | 0.3 | 0.517 | 0.698 | 0.557 | 0.522 | 0.576 | 0.65 | 0.549 | 0.671 | 0.573 | 1.2 | 1.28 | 1.12 | 0.885 |
| COR-L23 | 0.18 | 0.211 | 0.182 | 0.151 | 0.491 | 0.469 | 0.417 | 0.419 | 0.408 | – | – | – | – | 0.192 | 0.207 | 0.166 | 0.184 |
| COR-L 105 | 0.295 | 0.426 | 0.33 | 0.328 | 0.476 | 0.567 | 0.478 | – | 0.477 | – | – | – | – | 1.14 | 0.855 | 0.965 | 0.788 |
| ChaGo-K-1 | 0.217 | 0.199 | 0.208 | 0.226 | 0.54 | 0.569 | 0.524 | 0.475 | 0.373 | 0.844 | 0.901 | 0.826 | 0.825 | 0.257 | 0.256 | 0.263 | 0.233 |
| EKVX | 0.368 | 0.378 | 0.392 | 0.343 | 0.23 | 0.247 | 0.258 | 0.256 | 0.228 | 0.654 | 0.692 | 0.651 | 0.522 | 0.366 | 0.338 | 0.328 | 0.362 |
| EMC-BAC-2 | 0.28 | 0.249 | 0.27 | 0.254 | 0.535 | 0.63 | 0.497 | 0.509 | 0.428 | 1.15 | 1.11 | 1.08 | 0.835 | 0.437 | 0.449 | 0.403 | 0.368 |
| EPLC-272H | 0.348 | 0.307 | 0.264 | 0.324 | 0.313 | 0.329 | 0.305 | 0.272 | 0.244 | 0.165 | 0.207 | 0.254 | 0.433 | 0.406 | 0.335 | 0.324 | 0.291 |
| H3255 | 0.721 | 0.606 | 0.563 | 0.454 | 0.37 | 0.353 | 0.372 | 0.401 | 0.405 | 0.854 | 0.777 | 0.75 | 0.586 | 0.558 | 0.526 | 0.518 | 0.433 |
| HARA | 0.122 | 0.0974 | 0.258 | 0.0954 | 0.454 | 0.498 | 0.377 | 0.474 | 0.468 | 0.334 | 0.261 | 0.237 | 0.217 | 0.21 | 0.29 | 0.265 | 0.237 |
| HCC-15 | 0.421 | 0.31 | 0.322 | 0.199 | 0.431 | 0.491 | 0.459 | 0.428 | 0.316 | 1.22 | 1.17 | 1.21 | 1.04 | 0.208 | 0.218 | 0.221 | 0.209 |
| HCC-44 | 1 | 0.921 | 0.929 | 0.605 | 0.219 | 0.202 | 0.172 | 0.147 | 0.176 | 1.05 | 1.04 | 0.993 | 0.981 | 0.648 | 0.65 | 0.63 | 0.627 |
| HCC-78 | 0.407 | 0.335 | 0.398 | 0.347 | 0.766 | 1.03 | 0.692 | 0.753 | 0.644 | 0.567 | 0.565 | 0.749 | 0.404 | 0.852 | 0.899 | 0.943 | 0.934 |
| HCC-366 | 0.117 | 0.109 | 0.657 | 0.0463 | 0.588 | 0.668 | 0.538 | 0.655 | 0.431 | 0.237 | 0.215 | 0.251 | 0.187 | 0.219 | 0.18 | 0.18 | 0.128 |
| HCC-827 | 0.393 | 0.394 | 0.342 | 0.404 | 0.423 | 0.436 | 0.425 | 0.418 | 0.378 | 0.227 | 0.202 | 0.203 | 0.191 | 0.214 | 0.255 | 0.265 | 0.218 |
| HOP-62 | 0.375 | 0.341 | 0.351 | 0.241 | 0.689 | 0.745 | 0.664 | 0.628 | 0.613 | 0.489 | 0.57 | 0.726 | 0.513 | 0.368 | 0.364 | 0.36 | 0.331 |
